# Data published in PMC5811606, “Characterization of ^111In-labeled Glucose-Dependent Insulinotropic Polypeptide as a Radiotracer for Neuroendocrine Tumors” (Scientific Reports, 2018).
# Entries after “also recorded” stand apart in the source; their conditions may differ.
# How the values were obtained:
# [1] = Serum stability analysis in human serum; assay type: in vitro ADME; details: human serum (1:10), 37 °C
# Description: [Lys^37(DTPA)]N-acetyl-GIP1-42 (MW = 5422 g/mol) and GIP1-42 (MW = 5046.7 g/mol) were purchased from Peptide Specialty Laboratories (PSL GmbH, Heidelberg, Germany). DTPA was conjugated to the ε-amino group of the Lysine (K37) and the N-terminal tyrosine was acetylated to reduce its susceptibility to […] (Fig. 1). [Lys^37(DTPA)]GIP1-42 was dissolved in 0.5 M MES (2-(N-morpholino)ethanesulfonic acid) buffer, pH 5.5 and stored at 4 °C until use. […] Radiochemical purity of [Lys^37(^111In-DTPA)]N-acetyl-GIP1-42 was determined by instant thin-layer chromatography (ITLC) (ITLC-SG, Agilent Technologies, Lake Forest, CA, USA), using 0.1 M EDTA in 0.1 M NH4Ac (Sigma Aldrich), pH 5.5 as a mobile agent and by reversed-phase high performance liquid chromatography (RP-HPLC) using an Eclipse XDB C18 column (Agilent Technologies). […]
# For the serum stability analysis, [Lys^37(DTPA)]N-acetyl-GIP1-42 was labeled with [^111In]Cl3 at a specific activity of 27 GBq/µmol. Radiochemical purity of [Lys^37(^111In-DTPA)]N-acetyl-GIP1-42 directly after labeling was determined by ITLC-SG (Agilent Technologies) and RP-HPLC as described above. […] This mixture was centrifuged and after dilution, the radiochemical purity of the compound in the supernatant was analyzed using ITLC and RP-HPLC as described above.
# [2] = biological target: T1, GIPR on the islets of Langerhans (Mus musculus, UniProt Q0P543); experiment: In vitro binding to isolated islets; details: islets of C3H mice, 24 hours, 37 °C, + 25 µg unlabeled GIP1-42, mean ± SD
# T1 construct: Islets of Langerhans were isolated from donor C3H mice by collagenase digestion; from tissue; host or cells: isolated islets of Langerhans from C3H mice
# T1 sequence (Q0P543 19-460): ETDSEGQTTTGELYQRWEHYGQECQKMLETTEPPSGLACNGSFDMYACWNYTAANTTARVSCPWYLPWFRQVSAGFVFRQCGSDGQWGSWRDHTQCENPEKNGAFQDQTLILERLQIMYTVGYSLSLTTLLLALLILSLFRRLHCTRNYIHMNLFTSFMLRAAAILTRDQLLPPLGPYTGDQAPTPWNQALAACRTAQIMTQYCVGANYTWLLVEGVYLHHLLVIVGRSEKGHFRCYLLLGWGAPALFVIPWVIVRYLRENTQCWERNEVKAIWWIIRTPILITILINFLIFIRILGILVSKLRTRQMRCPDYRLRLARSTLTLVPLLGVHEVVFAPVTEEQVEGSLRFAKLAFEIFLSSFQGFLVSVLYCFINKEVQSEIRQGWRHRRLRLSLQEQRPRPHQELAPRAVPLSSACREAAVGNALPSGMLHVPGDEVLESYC
# Description: Islets of Langerhans were isolated from donor C3H mice by collagenase digestion as follows. Mice were euthanized by CO2/O2 suffocation and 2 ml of ice cold RPMI 1640 containing 1 mg/ml collagenase type V (Sigma Aldrich) were infused via the pancreatic duct in situ. After dissection, the perfused pancreata were collected in serum free medium containing collagenase and kept on ice until digestion. Pancreata were digested for 12 min at 37 °C. Digestion was stopped by adding RPMI medium containing 10% FCS, 2 mM L-glutamine, 100 U/ml penicillin and 100 U/ml streptomycin (complete RPMI). After washing, digested pancreata were passed through a mesh. Afterwards, islets were purified on a discontinuous Ficoll gradient (densities: 1.108; 1.096; 1.037; Cellgro by Mediatech Inc, Manassas, VA, USA) by centrifugation at 625 × g for 16 min without brake. Islets were collected from the intersection of the second and third layer and remaining Ficoll was removed by washing with complete RPMI. Isolated islets were cultured overnight in complete RPMI medium in a humidified atmosphere containing 5% CO2 at 37 °C.
# After overnight recovery from the isolation procedure, islets from the donor C3H mice were collected, counted and resuspended in complete RPMI. […] After incubation, islets were washed extensively with binding buffer and islet-associated radioactivity was measured in a well type gamma counter.
smiles,measurement,setting,value
"CC[C@H](C)[C@H](NC(=O)[C@H](CO)NC(=O)[C@H](Cc1ccc(O)cc1)NC(=O)[C@H](CC(=O)O)NC(=O)[C@H](CO)NC(=O)[C@@H](NC(=O)[C@H](Cc1ccccc1)NC(=O)[C@@H](NC(=O)CNC(=O)[C@H](CCC(=O)O)NC(=O)[C@H](C)NC(=O)[C@H](Cc1ccc(O)cc1)NC(C)=O)[C@@H](C)O)[C@@H](C)CC)C(=O)N[C@@H](C)C(=O)N[C@@H](CCSC)C(=O)N[C@@H](CC(=O)O)C(=O)N[C@@H](CCCCN)C(=O)N[C@H](C(=O)N[C@@H](Cc1c[nH]cn1)C(=O)N[C@@H](CCC(N)=O)C(=O)N[C@@H](CCC(N)=O)C(=O)N[C@@H](CC(=O)O)C(=O)N[C@@H](Cc1ccccc1)C(=O)N[C@H](C(=O)N[C@@H](CC(N)=O)C(=O)N[C@@H](Cc1c[nH]c2ccccc12)C(=O)N[C@@H](CC(C)C)C(=O)N[C@@H](CC(C)C)C(=O)N[C@@H](C)C(=O)N[C@@H](CCC(N)=O)C(=O)N[C@@H](CCCCN)C(=O)NCC(=O)N[C@@H](CCCCN)C(=O)N[C@@H](CCCCN)C(=O)N[C@@H](CC(N)=O)C(=O)N[C@@H](CC(=O)O)C(=O)N[C@@H](Cc1c[nH]c2ccccc12)C(=O)N[C@@H](CCCCNC(=O)CN(CCN(CCN(CC(=O)O)CC(=O)O)CC(=O)O)CC(=O)O)C(=O)N[C@@H](Cc1c[nH]cn1)C(=O)N[C@@H](CC(N)=O)C(=O)N[C@H](C(=O)N[C@H](C(=O)N[C@@H](CCC(N)=O)C(=O)O)[C@@H](C)O)[C@@H](C)CC)C(C)C)[C@@H](C)CC [[Lys^37(^111In-DTPA)]N-acetyl-GIP1-42, metal not drawn]",remaining at 24 h,"[1]; 24 hours, acetonitrile precipitation, RP-HPLC, read-out: activity found as intact radiolabeled peptide",73%
same,stability in human serum,"[1]; up to 4 hours, ITLC and RP-HPLC",remained intact; also recorded: remained stable
same,tracer bound to 200 isolated islets with excess unlabeled GIP1-42,[2],0.03 ± 0.01 fmol
